The text below walks through data of article PMC7873978, “A Novel Lipoate-Protein Ligase, Mhp-LplJ, Is Required for Lipoic Acid Metabolism in Mycoplasma hyopneumoniae” (Frontiers in Microbiology, 2021).

Structures are written as SMILES.

The target in assay [1] is T1, Mhp-LplJ (lipoate-protein ligase, MHP_RS00640) (Mesomycoplasma hyopneumoniae, UniProt E4QSS7).
T1 construct: gene lplA; hexa-histidine-tagged Mhp-LplJ (pET22b)
T1 sequence (E4QSS7 1-336): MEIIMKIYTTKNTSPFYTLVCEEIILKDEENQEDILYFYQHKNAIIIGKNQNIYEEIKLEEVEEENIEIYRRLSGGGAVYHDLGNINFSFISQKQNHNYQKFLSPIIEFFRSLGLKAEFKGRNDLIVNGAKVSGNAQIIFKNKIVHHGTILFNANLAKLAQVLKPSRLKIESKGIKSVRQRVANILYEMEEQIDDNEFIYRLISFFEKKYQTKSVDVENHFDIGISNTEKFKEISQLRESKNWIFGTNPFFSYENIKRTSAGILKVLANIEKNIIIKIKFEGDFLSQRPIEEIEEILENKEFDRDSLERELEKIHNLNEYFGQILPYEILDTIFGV
As to the kind of experiment: SPR (Biacore 8K), single-site affinity fit; also inhibits PdhD lipoylation in vitro at […]. It is filed as binding.

For assay [2], the target named is T1, Mhp-LplJ (lipoate-protein ligase, MHP_RS00640). As to the kind of experiment: SPR (Biacore 8K, CM5, immobilized Mhp-LplJ), single-site kinetics fit. In kind it is binding. A general note: SPR reads the build-up and loss of mass on a sensor chip optically.
Assay [3] concerns the target T2, E. coli LplA (lipoate-protein ligase A) (Escherichia coli, UniProt P32099).
T2 construct: hexa-histidine-tagged E. coli LplA (pET32a)
T2 sequence (P32099 2-338): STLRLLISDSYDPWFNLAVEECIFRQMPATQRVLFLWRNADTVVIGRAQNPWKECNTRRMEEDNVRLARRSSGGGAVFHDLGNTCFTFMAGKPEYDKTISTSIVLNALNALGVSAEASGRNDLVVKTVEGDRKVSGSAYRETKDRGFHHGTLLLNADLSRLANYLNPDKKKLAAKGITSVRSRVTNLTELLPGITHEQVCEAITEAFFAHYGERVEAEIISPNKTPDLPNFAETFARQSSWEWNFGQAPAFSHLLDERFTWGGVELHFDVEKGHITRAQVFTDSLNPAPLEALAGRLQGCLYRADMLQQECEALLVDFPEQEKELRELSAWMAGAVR
As to the kind of experiment: in vitro lipoate ligation to apo-PdhD, anti-lipoic acid western blot (positive control enzyme). In kind it is biochemical. (In general: Immunoblotting shows a protein as a band on a membrane.)

The target of assay [4] is T1, Mhp-LplJ (lipoate-protein ligase, MHP_RS00640). Nature of the assay: in vitro octanoate ligation to apo-PdhD, gel shift assay. In kind it is biochemical.

The Kd is a measure of binding affinity in units of concentration. Low readings indicate higher affinity, high ones lower affinity.

In assay [1], `O=C(O)CCCCCCCBr` [8-BrO, 8-bromooctanoic acid] came in with a Kd of 29.8 ± 3.62 µM.
As to `O=C(O)CCCC[C@@H]1CCSS1` [lipoic acid, (R)-5-(1,2-dithiolane-3-yl) pentanoic acid], the Kd in assay [2] stood at 24.1 ± 1.61 µM. In addition, the “in vitro lipoate ligation to apo-PdhD, anti-lipoic acid western blot (positive c)” value in assay [3] was “PdhD was successfully modified by E. coli LplA in vitro in the presence of lipoic acid”.
Regarding `CCCCCCCC(=O)O` [octanoic acid], the “in vitro octanoate ligation to apo-PdhD, gel shift assay” value in assay [4] is listed as “Mhp-LplJ could able to catalyze the attachment of free octanoic acid to PdhD”.
